Activity calls are given as the source filed them. No cut-off for these calls is given here.
Tests used:
HT-22 [1] = experiment: Cytotoxicity against mouse HT-22 cells assessed as cell viability at 20 uM incubated for 24 hrs by CCK-8 method; type: functional, cell-based
[2] = molecular target: T1, Myeloperoxidase (Homo sapiens) (UniProt P05164); experiment: Inhibition of MPO in HEK293T cells harbouring MPO-ZsGreen assessed as decrease in red fluorescence intensity at 10 uM preincubated with MPO-IN-28 for 4 hrs followed by compound addition and measured after 30 mins by fluorescence imaging based confocal microscopy analysis; type: cell-based
T1 sequence (whole entry): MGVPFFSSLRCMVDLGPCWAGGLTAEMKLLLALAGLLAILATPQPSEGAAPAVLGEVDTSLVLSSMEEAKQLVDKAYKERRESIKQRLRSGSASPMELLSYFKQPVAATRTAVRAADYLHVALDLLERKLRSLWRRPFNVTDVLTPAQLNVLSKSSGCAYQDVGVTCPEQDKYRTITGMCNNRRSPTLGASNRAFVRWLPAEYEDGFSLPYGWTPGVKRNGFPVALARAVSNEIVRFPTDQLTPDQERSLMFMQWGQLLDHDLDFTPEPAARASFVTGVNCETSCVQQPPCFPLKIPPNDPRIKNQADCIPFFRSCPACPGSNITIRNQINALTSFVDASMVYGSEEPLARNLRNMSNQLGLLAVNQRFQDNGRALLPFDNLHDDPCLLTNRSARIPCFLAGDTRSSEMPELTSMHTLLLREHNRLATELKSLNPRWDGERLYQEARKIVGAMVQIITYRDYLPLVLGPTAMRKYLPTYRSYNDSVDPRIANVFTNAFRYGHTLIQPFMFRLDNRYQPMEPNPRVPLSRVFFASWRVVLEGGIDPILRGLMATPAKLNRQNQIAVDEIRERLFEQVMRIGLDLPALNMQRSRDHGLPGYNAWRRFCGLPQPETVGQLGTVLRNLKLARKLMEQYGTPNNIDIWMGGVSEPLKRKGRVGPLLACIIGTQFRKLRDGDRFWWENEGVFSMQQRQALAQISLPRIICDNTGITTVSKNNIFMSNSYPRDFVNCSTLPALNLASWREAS

Myeloperoxidase = molecular target: T2, Myeloperoxidase (Homo sapiens, UniProt P05164); experiment: (§1) Binding affinity to MPO (unknown origin) assessed as dissociation constant by ITC analysis
T2 sequence (P05164 whole entry): T1 sequence (whole entry)

Brain [3] = experiment: (§2) Ex vivo protection against photo thrombotic stroke induced cerebral ischemia in male C57BL/6 mouse brain assessed as decrease in MPO induced HClO fluorescence signal in cortex at 10 uM preincubated with AZD5904 for 1 hr followed by compound addition and measured after 30 mins by fluorescence imaging based confocal microscopy analysis; type: functional, tissue-based
Brain [4] = experiment: as §2, with “MPO-IN-28” for “AZD5904”; type: functional, tissue-based
[5] = Drug uptake in human HeLa cells assessed as increase in red fluorescence at 10 uM measured within 40 mins in presence of HClO by Hoechst staining based confocal microscopic analysis; type: ADME, cell-based
[6] = Drug uptake in human HeLa cells at 10 uM measured after 30 mins by Hoechst staining based confocal microscopic analysis; type: ADME, cell-based; settings: 0.5 h
[7] = molecular target: T1, Myeloperoxidase (Homo sapiens); experiment: Inhibition of MPO in HEK293T cells harbouring MPO-ZsGreen assessed as decrease in red fluorescence intensity at 10 uM preincubated with AZD5904 for 4 hrs followed by compound addition and measured after 30 mins by fluorescence imaging based confocal microscopy analysis; type: cell-based
[8] = molecular target: T1, Myeloperoxidase (Homo sapiens); experiment: Inhibition of MPO in human HL-60 cells harbouring MPO-ZsGreen assessed as decrease in red fluorescence intensity at 10 uM preincubated with AZD5904 for 2 hrs followed by compound addition and measured after 30 mins by fluorescence imaging based confocal microscopy analysis; type: cell-based
[9] = molecular target: T1, Myeloperoxidase (Homo sapiens); experiment: Inhibition of MPO in HEK293T cells harbouring MPO-ZsGreen assessed as decrease in red fluorescence intensity at 10 uM preincubated with edaravone for 4 hrs followed by compound addition and measured after 30 mins by fluorescence imaging based confocal microscopy analysis; type: cell-based
[10] = molecular target: T1, Myeloperoxidase (Homo sapiens); experiment: Binding affinity to MPO (unknown origin) assessed as change in enthalpy by ITC analysis
Mus musculus [11] = experiment: Protection against photo thrombotic stroke induced cerebral ischemia in male C57BL/6 mouse model assessed as MPO secretion in brain at 1 mg/kg, iv by Ly6G staining based confocal microscopy based analysis; type: functional, organism-based
[12] = molecular target: T1, Myeloperoxidase (Homo sapiens); experiment: Inhibition of MPO in HEK293T cells harbouring MPO-ZsGreen assessed as decrease in red fluorescence intensity at 10 uM preincubated with ZL-002 for 4 hrs followed by compound addition and measured after 30 mins by fluorescence imaging based confocal microscopy analysis; type: cell-based
[13] = molecular target: T1, Myeloperoxidase (Homo sapiens); experiment: Inhibition of MPO in HEK293T cells harbouring MPO-ZsGreen assessed as decrease in red fluorescence intensity at 10 uM preincubated with ZL-006 for 4 hrs followed by compound addition and measured after 30 mins by fluorescence imaging based confocal microscopy analysis; type: cell-based
[14] = molecular target: T1, Myeloperoxidase (Homo sapiens); experiment: Induction of thermal stabilization of MPO (unknown origin) at 10 uM by CESTA analysis
[15] = molecular target: T1, Myeloperoxidase (Homo sapiens); experiment: Inhibition of MPO in human HL-60 cells harbouring MPO-ZsGreen assessed as decrease in red fluorescence intensity at 10 uM preincubated with MPO-IN-28 for 2 hrs followed by compound addition and measured after 30 mins by fluorescence imaging based confocal microscopy analysis; type: cell-based
HT-22 [16] = experiment: Cytotoxicity against mouse HT-22 cells assessed as cell viability at 50 uM incubated for 24 hrs by CCK-8 method; type: functional, cell-based
[17] = Drug uptake in human HeLa cells assessed as increase in red fluorescence at 10 uM measured after 30 mins in presence of HClO by Hoechst staining based confocal microscopic analysis; type: ADME, cell-based; settings: 0.5 h
[18] = Drug uptake in IFN-gamma treated human Neutrophil cells assessed as increase in fluorescence at 10 uM measured after 30 mins by Hoechst staining based confocal microscopic analysis; type: ADME, cell-based; settings: 0.5 h
Mus musculus [19] = organism: Mus musculus; experiment: Protection against photo thrombotic stroke induced cerebral ischemia in male C57BL/6 mouse model assessed as decrease in fluorescence response in brain cortex preincubated with AZD5904 for 18 consecutive days followed by induction of stoke for 3 days and measured after 7 days by Ly6G staining based confocal microscopy based analysis; type: functional, organism-based; settings: time 7.0 day
Mus musculus [20] = experiment: Protection against photo thrombotic stroke induced cerebral ischemia in male C57BL/6 mouse model assessed as decrease in infarct size at 40 mg/kg, IG preincubated for 18 consecutive days followed by induction of stoke for 3 days and measured after 5 days by TTC staining based analysis; type: functional, organism-based; settings: time 26.0 day
Mus musculus [21] = experiment: Protection against photo thrombotic stroke induced cerebral ischemia in male C57BL/6 mouse model assessed as amelioration of foot fault in forelimb at 40 mg/kg, IG preincubated for 18 consecutive days followed by induction of stoke for 3 days and measured after 5 to 15 days by foot fault test; type: functional, organism-based; settings: time 26-36 day
Mus musculus [22] = experiment: Protection against photo thrombotic stroke induced cerebral ischemia in male C57BL/6 mouse model assessed as inhibition of MPO activity in brain at 40 mg/kg, IG preincubated for 18 consecutive days followed by induction of stoke for 3 days and measured after 7 days; type: functional, organism-based; settings: time 28.0 day
Mus musculus [23] = experiment: Protection against photo thrombotic stroke induced cerebral ischemia in male C57BL/6 mouse model assessed as decrease in asymmetry index at 40 mg/kg, IG preincubated for 18 consecutive days followed by induction of stoke for 3 days and measured after 10 to 15 days by foot fault test; type: functional, organism-based; settings: time 31-36 day
Mus musculus [24] = experiment: Protection against photo thrombotic stroke induced cerebral ischemia in male C57BL/6 mouse model assessed as amelioration of foot fault in hindlimb at 40 mg/kg, IG preincubated for 18 consecutive days followed by induction of stoke for 3 days and measured after 5 to 15 days by foot fault test; type: functional, organism-based; settings: time 26-36 day
Mus musculus [25] = experiment: Protection against photo thrombotic stroke induced cerebral ischemia in male C57BL/6 mouse model assessed as effect on body weight at 40 mg/kg, IG preincubated for 18 consecutive days followed by induction of stoke for 3 days and measured after 5 days by TTC staining based analysis; type: functional, organism-based; settings: time 26.0 day
[26] = molecular target: T1, Myeloperoxidase (Homo sapiens); experiment: as §1
Mus musculus [27] = organism: Mus musculus; experiment: Protection against photo thrombotic stroke induced cerebral ischemic male C57 mouse model assessed as improvement in sensory motor dysfunction measured after 5 days by rotarod test; type: functional, organism-based; settings: time 5.0 day
Mus musculus [28] = organism: Mus musculus; experiment: Protection against photo thrombotic stroke induced cerebral ischemic male C57 mouse model assessed as improvement in sensory motor dysfunction measured after 5 days by foot fault test; type: functional, organism-based; settings: time 5.0 day
Mus musculus [29] = organism: Mus musculus; experiment: Protection against photo thrombotic stroke induced cerebral ischemic male C57 mouse model assessed as reduction in number neutrophils measured after 7 days; type: functional, organism-based; settings: time 7.0 day

With `CN(C)c1ccc2c(c1)[Si](C)(C)c1cc(N(C)C)ccc1C21c2ccccc2C(=O)N1NC(=S)NCCc1c[nH]c2ccc(O)cc12` the Activity (HT-22 [1]) was “Active”.

In the case of `COc1ccc2[nH]cc(CCNC(=S)NN3C(=O)c4ccccc4C34c3ccc(N(C)C)cc3[Si](C)(C)c3cc(N(C)C)ccc34)c2c1`, the inhibition [2] is reported as “Active”, the Kd (Myeloperoxidase) is reported as 11.6 µM and the Activity (Brain [3]) is reported as “Active”. The Activity (Brain [4]) was “Active”, the Drug uptake [5] was “Not_active” and the Drug uptake [6] was “Not_active”. For the same compound, the inhibition [7] was “Active”, the inhibition [8] was “Active” and the inhibition [9] was “inactive”. The deltaH [10] was 2.39 kcal/mol, the Activity (Mus musculus [11]) was “Active” and the inhibition [12] was “inactive”. The inhibition [13] was “Active”, the Activity [14] was “Active” and the inhibition [15] was “Active”. The Activity (HT-22 [16]) was “Active; Compound Showed Little Toxicity”, the Drug uptake [17] was “Active” and the Drug uptake [18] was “Active”. The Activity (Mus musculus [19]) was “Active”.

For `O=c1[nH]c(=S)n(C[C@H]2CCCO2)c2nc[nH]c12`, the Activity (Mus musculus [20]) was “Active”, the Activity (Mus musculus [21]) was “Active” and the Activity (Mus musculus [22]) was “Active”. For the same compound, the Activity (Mus musculus [23]) was “Active”, the Activity (Mus musculus [24]) was “Active” and the Activity (Mus musculus [25]) was “Active”.

For `CCNc1cc2[o+]c3cc(NCC)c(C)cc3c(-c3ccccc3C(=O)OCC)c2cc1C`, the Activity [26] was “inactive” and the Activity [10] was “inactive”.

With `CC1=NN(c2ccccc2)C(=O)C1` the Activity (Mus musculus [27]) was “inactive”, the Activity (Mus musculus [28]) was “inactive” and the Activity (Mus musculus [29]) was “inactive”.

— ChEMBL document CHEMBL6134810, “Novel Hypochlorous Acid-Activated Near-Infrared Probe Monitors the Dynamic Changes of Myeloperoxidase Activity in Ischemic Brain” (J Med Chem, 2025)
